Experimental data taken from patent publication US20080089859A1, “ADMINISTRATION OF SLEEP RESTORATIVE AGENTS” (priority 2001, published 2008).

Columns and labels:
[1] = test system: rheumatoid arthritis (Ra) and Psoriatic arthritis (PsA) patients; assay: Study of Example 1 continued to 18 months (Example 2); assay type: in vivo, human; conditions: 12 month to 18 month time point; on Etanercept
From the text: The study of Example 1 was continued to 18 months. […] Fibromyalgia was a surrogate for a lack of deep (e.g., stage IV) restorative sleep.
JC refers to the number of swollen tender joints.

[2] = test system: patients with Behcet's Syndrome; assay: Treatment of patients with Behcet's Syndrome; assay type: in vivo, human; conditions: for Discontinuation of prednisone: single patients, lorazepam 2 mg qhs (patient 1), pramipexole added to lorazepam (patient 2), clonazepam 2 mg qhs (patient 3)
Procedure: Three patients with Behcet's Syndrome were treated according to the present invention. For one patient, prednisone administration was supplemented with lorazepam at 2 mg qhs. […] For a second patient, lorazepam at 2 mg qhs was co-admnistered with Dapsone and prednisone.

[3] = test system: patients with Palindromic Rheumatism; assay: Treatment of patients with Palindromic Rheumatism; assay type: in vivo, human; conditions: five patients; clonazepam 2 mg, pramipexole 1-6 mg and/or lorazepam 2 mg qhs
Procedure: Five patient with Palindromic Rheumatism were treated according to the present invention. After adding clonazepam 2 mg, pramipexole 1-6 mg and/or lorazepam 2 mg qhs to their treatment, the patients reported that episodic severe pain decreased dramatically, by 90%.

[4] = test system: patients having rheumatoid arthritis; assay: Rheumatoid arthritis patients on Leflunamide given sleep restorative agents; assay type: in vivo, human; conditions: lorazepam, clonazepam and/or pramipexole
[5] = test system: patients with Sjogren's Syndrome; assay: Treatment of patients with dry eyes and mouth from Sjogren's Syndrome; assay type: in vivo, human; conditions: Lorazepam 1-2 mg po qhs, Pramipexole later 0.5-4.0 mg qhs
Procedure: Three patients with dry eyes and mouth from Sjogren's Syndrome, were treated with lorazepam or pramipexole. […] Lorazepam was administered at 1-2 mg po qhs. Pramipexole was later administered at 0.5-4.0 mg qhs.

[6] = test system: patients with Ankylosing Spondylitis; assay: Treatment of patients with Ankylosing Spondylitis; assay type: in vivo, human; conditions: six patients on Methotrexate, steroids 2-10 mg qd and Etanercept; lorazepam 1-2 mg qhs or pramipexole 0.5-3.0 mg qhs
Procedure: Six patients with Ankylosing Spondylitis were treated according to the present invention. […] The patients were administered lorazepam 1-2 mg qhs or pramipexole 0.5-3.0 mg qhs.

[7] = test system: patients with Systemic Lupus Erythematosis; assay: Treatment of patients with Systemic Lupus Erythematosis; assay type: in vivo, human; conditions: patient steroid-dependent at 20 mg qd on leflunamide; lorazepam 2 mg qhs added
Procedure: Patients with Systemic Lupus Erythematosis were treated according to the present invention.
The dose range of pramipexole ranged from 2-6 mg qhs.

[8] = test system: patient with chronic gout; assay: Treatment of a patient with chronic gout and severe synovitis; assay type: in vivo, human; conditions: for Prednisone dose reached: colchicine, hydroxychloroquine and Etanercept added together, before sleep agents
Procedure: Adding colchicine, hydroxychloroquine and Etanercept only allowed them to decrease prednisone to 15 mg qd.

patient with pseudogout = assay: Treatment of a patient with pseudogout; assay type: in vivo, human; conditions: one patient on colchicine; lorazepam 2 mg qhs added for sleep
[9] = test system: patients with Multiple Sclerosis (MS)
Procedure: Eight patients with Multiple Sclerosis (MS) were treated according to the present invention.

[10] = test system: patients having rheumatoid arthritis; assay: Rheumatoid arthritis patients on Infliximab given sleep restorative agents; assay type: in vivo, human; conditions: lorazepam 1-2 mg qhs or pramipexole

| Structure (SMILES) | Response of improved patients after adding the agent to their treatment [1] | Discontinuation of prednisone [2] | Decrease of episodic severe pain [3] [%] | Other medications stopped [3] | Leflunamide efficacy [4] | Flares (patient with pseudogout) | Prednisone dose reached ([8]; one patient) [mg qd] | other results |
| --- | --- | --- | --- | --- | --- | --- | --- | --- |
| O=C1CN=C(c2ccccc2Cl)c2cc([N+](=O)[O-])ccc2N1 [Clonazepam] | did much better from the 12 month time point to the 18 month time point | able to discontinue prednisone 10 mg qd | 90 | off narcotics, steroids, Etanercept, Infliximab, leflunamide, Azothioprine, sulfasalazine, hydroxychloroquine and colchicine | increased Leflunamide efficacy |  |  | Symptoms observed in the patient ([2]; second patient (pramipexole added to lorazepam), third patient (clonazepam 2 mg qhs)): less fatigue and no further mouth ulcers were observed |
| O=C1Nc2ccc(Cl)cc2C(c2ccccc2Cl)=NC1O (stereo not shown) [Lorazepam] | did much better from the 12 month time point to the 18 month time point | able to d/c prednisone in two months | 90 | off narcotics, steroids, Etanercept, Infliximab, leflunamide, Azothioprine, sulfasalazine, hydroxychloroquine and colchicine | increased Leflunamide efficacy | no flares for three years |  | Resolution of dryness (eyes and mouth) ([5]; 3 patients on Hydroxychloroquine 200 mg po bid, nearly complete resolution in third patient): Complete resolution of the dryness in 2 of 3 patients; Hydroxychloroquine sparing ([5]; 3 patients): One daily dose of Hydroxychloroquine was discontinued and benefit maintained; Discontinuation of Dapsone ([2]; second patient, lorazepam 2 mg qhs with Dapsone and prednisone): Dapsone could be discontinued without further seizures; Discontinuation of Methotrexate and steroids [6]: All six patients were able to discontinue Methotrexate and steroids; Prednisone dose reached [7]: 15 mg qhs; Discontinuation of other medications ([8]; one patient, pramipexole and lorazepam added together): allowed the patient to discontinue steroids, colchicine, hydroxychoroquine, and narcotics; Sleep and fibromyalgia ([9]; one patient flaring uncontrollably, Lorazepam 2 mg qhs): still exhibited poor sleep and fibromyalgia; MS activity ([9]; three patients, pramipexole and/or lorazepam added): MS was quiet for over three years; Infliximab efficacy [10]: increased efficacy of Infliximab |
| COc1cc2c(c(OC)c1OC)-c1ccc(OC)c(=O)cc1[C@@H](NC(C)=O)CC2 [colchicine] |  |  |  |  |  | flare ups were previously uncontrolled | 15 |  |
| CCN(CCO)CCCC(C)Nc1ccnc2cc(Cl)ccc12 (stereo not shown) [hydroxychloroquine] |  |  |  |  |  |  | 15 |  |
| C[C@]12C=CC(=O)C=C1CC[C@@H]1[C@@H]2C(=O)C[C@@]2(C)[C@H]1CC[C@]2(O)C(=O)CO [prednisone] |  |  |  |  |  |  |  | Control of severe synovitis ([8]; prednisone 10-40 mg qd for two months): uncontrolled |
